Series [1] has as its system sigma-1 site compared to the sigma-2 site. As to conditions: (+) isomers of benzomorphan opiates; cited from earlier work.
The subject of series [2] is SHR (spontaneous hypertensive) rats, stroke by MCA occlusion. In words: Rotating pole or cylinder test after MCA occlusion (Example 1). Format: in vivo, rat. As to conditions: 0.03-10 mg/kg s.c. or p.o. from two days after MCAO for 2-8 weeks; present-tense example. The source says:
Male 3 months old SHR (spontaneous hypertensive) rats are used for induction of stroke by MCA occlusion. This is the preferred strain since most stroke patients are hypertensive. The animals are anesthetized with Methohexital and a small craniectomy is made above the zygmotic arch to expose the middle cerebral artery, which is occluded with a 10-0 monofilament nylon thread distal to the origin of the striatal branches. The rats are not intubated and no catheters are inserted. Following MCA occlusion a large and reproducible infarct is obtained, leading to a robust sensorimotor deficit. The animals are kept on a 6 hr light/18 h dark cycle with free access to food and water. At two days after the MCAO the rats are treated with the compound I, II, III, IV, V, VI, VII, VIII, or IX (0.03-10 mg/kg) s.c. or p.o. and a control group is given saline for 2-8 weeks. At 2, 4, 6 and 8 weeks animals are tested in the rotating pole or cylinder test
(§1) The cylinder test (modified from Schallert and Tillerson (Innovative models of CNS disease: from molecule to therapy. Clifton, N.J., Humana, 1999) is used to quantify the forelimb use for rearing on the cylinder wall. The rats are monitored as they move freely in a 20-cm-wide clear glass cylinder. Contacts made by each forepaw with the cylinder wall while rearing are scored by a blinded observer. A total of 20 contacts are recorded for each animal, and the number of impaired (left), both, and non-impaired forelimb contacts as percentage of total contacts is calculated. Baseline for rats is achieved by measuring the contacts made by each forepaw before MCAO.

The subject of series [3] is NMDA-induced toxicity and seizures. The note with it: in vivo models; cited from earlier work.
For series [4], the system named is spontaneously hypertensive rats exposed to permanent middle artery occlusion (MCAO). In words: Rotating pole test after permanent MCAO (Example 2). The format is in vivo, rat. As to conditions: rotating pole score 0-6. The source says:
A score of 6-0 is given for each direction:
6, the animal crosses the pole with no foot slips;
5, the animal crosses the pole with a few foot slips;
4, the animal crosses the pole, slipping 50% of the footsteps;
3, the animal crosses the pole with more than 50% foot slips;
2, the animal walks a bit and then rotates around the pole;
1, the animal rotates around the pole without crossing it;
0, the animal falls off the pole.
Thirty five spontaneously hypertensive rats were exposed to permanent middle artery occlusion (MCAO), then divided into three treatment groups. Starting at two days after occlusion and continuing daily until 28 days after occlusion, SA4503 was administered s.c. in doses of 0.3 mg/kg (12 rats) or 1.0 mg/kg (12 rats). In a control group (11 rats), vehicle only was administered. At the start of treatment, and at several time points during the test, the rats were assessed for their performance in the rotating pole model. This model is described in Example 1. It requires the rats to cross a horizontally suspended rotating pole having a length of 1 m. This task measures the sensory-motor performance of the animals. The animals' behaviour was recorded using a video camera and later analyzed and scored by a trained technician. The scoring ranges from 0 to 6, with 0 being very poor performance and 6 reflecting the performance of a healthy animal (without MCAO).

The test system is the same in series [5]. In words: Cylinder test for asymmetric forelimb use after permanent MCAO (Example 2). The note with it: 0.3 mg/kg; all time points measured. Format: in vivo, rat. The protocol:
as §1
Forty three spontaneously hypertensive rats were exposed to permanent middle artery occlusion (MCAO), then divided into three treatment groups. […] At the start of treatment, and at several time points during the test, the rats were assessed for their performance in the cylinder test. […] The performance of the rats in the test was assessed one day before permanent MCAO, then at 14 days, 28 days and 59 days after permanent MCAO. The rats were monitored as they moved freely in a 20 cm-wide clear glass cylinder. Contacts made by each forepaw with the cylinder wall while rearing were scored by a blinded observer. […]

In series [6] the test system is rat primary neuronal cultures. As to conditions: cited from earlier work.
The test system of series [7] is cultured rat retinal neurons. The note with it: cited from earlier work.
The subject of a further series is ischemia in gerbils. The note with it: cited from earlier work.
The conditions of series [8]: hydrohalide salts, in particular the hydrochloride salt; cited from earlier work.

Take `CC(C)=CCN1CCC2(C)c3cc(O)ccc3CC1C2C` (single isomer, unassigned; (+)) [(+)pentazocine]: the “affinity for the sigma-1 site compared to the sigma-2 site” value in [1] was “nearly two orders of magnitude higher affinity for the sigma-1 site”. `CCC(C/C=C/c1ccccc1)(c1ccccc1)N(C)CC1CC1` (single isomer, unassigned; (+)) [VI, (+)-N-(cyclopropylmethyl)-N-[1-ethyl-1,4-diphenyl-3(E)-butenyl]-N-methylamine]: the “performance in the rotating pole test or the cylinder test versus control” value in series [2] is given as “perform better than the group 1 control animals”.

Take `OC(CCCN1CCN(c2ncc(F)cn2)CC1)c1ccc(F)cc1` (stereo not shown) [BMY-14802]: the “protective effects against NMDA-induced toxicity and seizures” value (“protective effects” for short) in series [3] is listed as “consistent with affording protective effects”. Turning to `O=C(NC1CCN(Cc2ccccc2)CC1)c1ccc(I)cc1` [II, N-(N-benzylpiperidin-4-yl)-4-iodobenzaminde], the “performance in the rotating pole test or the cylinder test versus control” value in [2] is “perform better than the group 1 control animals”.

With `O=C(OCCN1CCOCC1)C1(c2ccccc2)CCCCC1` [III, 1-phenylcyclohexane-1-carboxylic acid-2-morpholinoethyl ester], the “performance in the rotating pole test or the cylinder test versus control” value in [2] was “perform better than the group 1 control animals”. `COc1ccc(CN2CCN(Cc3ccccc3)CC2)c(O)c1OC` [IX, N-benzyl-N′-(2-hydroxy-3,4-dimethoxybenzyl)-piperazine]: the “performance in the rotating pole test or the cylinder test versus control” value in series [2] is “perform better than the group 1 control animals”. As to `COc1ccc(CCN2CCN(CCCc3ccccc3)CC2)cc1OC` [SA4503, 1-(3,4-dimethoxyphenethyl)-4-(3-phenylpropyl) piperazine], the “total average score at day 30” value in series [4] (0.3 mg/kg s.c.) worked out at 5.2. The “Average Increase in Score at Day 30 (SEM)” value was 3.5 (SEM 0.4) (p < 0.05) in series [4] (0.3 mg/kg s.c. daily from day 2 to day 28 after MCAO) and 3.67 (SEM 0.48) (p < 0.05) in [4] (1.0 mg/kg s.c. daily from day 2 to day 28 after MCAO). Besides, in series [5], the “asymmetry of paw usage” value is reported as “reduced to pre-MCAO levels”. In addition, in series [2], the “performance in the rotating pole test or the cylinder test versus control” value is reported as “perform better than the group 1 control animals”. Moreover, in series [6], the “suppression of hypoxia/hypoglycemia-induced neurotoxicity” value is reported as “significantly suppress”. Moreover, the “activity against glutamate neurotoxicity” value in [7] is reported as “active”. On to `COc1cccc2c1CCC(=O)N2CCCN1CCN(c2cccc(Cl)c2)CC1` [VII, 1-[3-[4-(3-chlorophenyl)piperazin-1-yl]propyl]-5-methoxy-1,2,3,4-tetrahydroquinolin-2-one], for which, in series [2], the “performance in the rotating pole test or the cylinder test versus control” value is “perform better than the group 1 control animals”. Still for that read-out and setting: the value for `CN(CCc1ccc(Cl)c(Cl)c1)[C@H]1CCCC[C@H]1N1CCCC1` [VIII, (−)-(1S, 2R)-N-[2-(3,4-dichlorophenyl)ethyl]-N-methyl-2-(pyrrolidin-1-yl) cyclohexylamine] was “perform better than the group 1 control animals”. As for `CCN(CC)CCOC(=O)C1(c2ccccc2)CCCC1` [caramiphen], the “protective effects” value in series [3] is given as “consistent with affording protective effects”. For the molecule `COCCCC/C(=N\OCCN)c1ccc(C(F)(F)F)cc1` [fluvoxamine, 5-methoxy-4′-(trifluoromethyl)valerophenone O-(2-aminoethyl)oxime], the “performance in the rotating pole test or the cylinder test versus control” value in series [2] is recorded as “perform better than the group 1 control animals”.

For `O=C(CCCN1CCC(O)(c2ccc(Cl)cc2)CC1)c1ccc(F)cc1` [haloperidol], the “protective effects” value in [3] is given as “consistent with affording protective effects”. Turning to `OCCN1CCN(CCCN2c3ccccc3C=Cc3ccccc32)CC1` [opipramol], in the series with ischemia in gerbils, the protection against ischemia entry is listed as “protect against ischemia”. In the case of `Fc1ccc(-n2cc(CCCCN3CCC4(CC3)OCc3ccccc34)c3ccccc32)cc1` [siramesine, 1′-[4-[1-(4-fluorophenyl)-1H-indol-3-yl]-1-butyl] spiro [isobenzofuran-1(3H),4′-piperidine]], in series [2], the “performance in the rotating pole test or the cylinder test versus control” value was “perform better than the group 1 control animals”. For the same molecule, the bioavailability result in [8] is reported as “good bioavailability”. As to (+)SKF 10,047, the “affinity for the sigma-1 site compared to the sigma-2 site” value in series [1] is “nearly two orders of magnitude higher affinity for the sigma-1 site”.

The record behind these values is patent publication US20050020483A1, “Sigma ligands for neuronal regeneration and functional recovery” (priority 2003, published 2005).
